Measured values from patent publication US5416081A, “Cephalosporin compounds” (Lucky Limited, priority 1992, dated 1995).
In brackets after ≈: the same amount, converted by molar mass. Like-named read-outs stand apart in the source and are kept apart here.

What was measured:
Format in all cases: cell-based
E. cloacae/1194E = test: MIC against standard strain by two-fold agar dilution, E. cloacae/1194E; conditions: Enterobacter cloacae
Procedure: (§1) These MIC values were taken by employing a two-fold dilution method: that is, two-fold serial dilutions of each of the test compounds were made and dispersed in a Muller-Hinton agar medium; 2 μl of the standard test strain which had the 10^7 CFU(Colony Forming Unit) per ml was inoculated on the medium; and these were incubated at 37° C. for 20 hours.

E. coli/3190Y = test: MIC against standard strain by two-fold agar dilution, E. coli/3190Y; conditions: Escherichia coli
Procedure: as §1

S. typhimunium/14028A = test: MIC against standard strain by two-fold agar dilution, S. typhimunium/14028A
Procedure: as §1

E. coli/10536 = test: MIC against standard strain by two-fold agar dilution, E. coli/10536; conditions: Escherichia coli
Procedure: as §1

E. coli TEM1/1193E = test: MIC against standard strain by two-fold agar dilution, E. coli TEM1/1193E; conditions: Escherichia coli, 20 h
Procedure: as §1

P. aeruginosa/1912E = test: MIC against standard strain by two-fold agar dilution, P. aeruginosa/1912E; conditions: Pseudomonas aeruginosa
Procedure: as §1

P. aeruginosa/6065Y = test: MIC against standard strain by two-fold agar dilution, P. aeruginosa/6065Y; conditions: Pseudomonas aeruginosa
Procedure: as §1

P. aeruginosa/10145 = test: MIC against standard strain by two-fold agar dilution, P. aeruginosa/10145; conditions: Pseudomonas aeruginosa
Procedure: as §1

S. marcescens/1826E = test: MIC against standard strain by two-fold agar dilution, S. marcescens/1826E; conditions: Serratia marcescens
Procedure: as §1

S. aureus/77 = test: MIC against standard strain by two-fold agar dilution, S. aureus/77; conditions: Staphylococcus aureus
Procedure: as §1

S. aureus/giorigio = test: MIC against standard strain by two-fold agar dilution, S. aureus/giorigio; conditions: Staphylococcus aureus
Procedure: as §1

E. coli TEM5/3739E = test: MIC against standard strain by two-fold agar dilution, E. coli TEM5/3739E; conditions: Escherichia coli, 20 h
Procedure: as §1

E. coli TEM9/2639E = test: MIC against standard strain by two-fold agar dilution, E. coli TEM9/2639E; conditions: Escherichia coli, 20 h
Procedure: as §1

K. aerogenes/1776E = test: MIC against standard strain by two-fold agar dilution, K. aerogenes/1776E; conditions: Klebsiella aerogenes
Procedure: as §1

S. aureus/6538pA = test: MIC against standard strain by two-fold agar dilution, S. aureus/6538pA; conditions: Staphylococcus aureus
Procedure: as §1

A. calcoaceticus /15473A = test: MIC against standard strain by two-fold agar dilution, A. calcoaceticus /15473A; conditions: Acinetobacter calcoaceticus
Procedure: as §1

[1] = E. cloacae/1194E, Muller-Hinton agar, 37° C., 20 hours, read-out: MIC
[2] = S. typhimunium/14028A, Muller-Hinton agar, 37° C., 20 hours, read-out: MIC
[3] = P. aeruginosa/1912E, Muller-Hinton agar, 37° C., 20 hours, read-out: MIC
[4] = P. aeruginosa/6065Y, Muller-Hinton agar, 37° C., 20 hours, read-out: MIC
[5] = P. aeruginosa/10145, Muller-Hinton agar, 37° C., 20 hours, read-out: MIC
[6] = S. marcescens/1826E, Muller-Hinton agar, 37° C., 20 hours, read-out: MIC
[7] = S. aureus/77, Muller-Hinton agar, 37° C., 20 hours, read-out: MIC
[8] = S. aureus/giorigio, Muller-Hinton agar, 37° C., 20 hours, read-out: MIC
[9] = K. aerogenes/1776E, Muller-Hinton agar, 37° C., 20 hours, read-out: MIC
[10] = A. calcoaceticus /15473A, Muller-Hinton agar, 37° C., 20 hours, read-out: MIC
[11] = E. coli/3190Y, Muller-Hinton agar, 37° C., 20 hours, read-out: MIC
[12] = E. coli/10536, Muller-Hinton agar, 37° C., 20 hours, read-out: MIC
[13] = S. aureus/6538pA, Muller-Hinton agar, 37° C., 20 hours, read-out: MIC

SMILES: CC(C)(O/N=C(\C(=O)N[C@@H]1C(=O)N2C(C(=O)[O-])=C(C[n+]3ccccc3)CS[C@H]12)c1csc(N)n1)C(=O)O [ceftazidime, Ceftazidime, reference compound]
- MIC (E. cloacae/1194E; 20 h): 64 µg/mL (≈ 117 µM)
- MIC (E. coli/3190Y; 20 h): 0.031 µg/mL (≈ 0.0567 µM)
- MIC (S. typhimunium/14028A; 20 h): 0.25 µg/mL (≈ 0.457 µM)
- MIC (E. coli/10536; 20 h): 0.063 µg/mL (≈ 0.115 µM)
- MIC (E. coli TEM1/1193E): 0.28 µg/mL (≈ 0.512 µM)
- MIC (P. aeruginosa/1912E; 20 h): 1 µg/mL (≈ 1.83 µM)
- MIC (P. aeruginosa/6065Y; 20 h): 32 µg/mL (≈ 58.5 µM)
- MIC (P. aeruginosa/10145; 20 h): 2 µg/mL (≈ 3.66 µM)
- MIC (S. marcescens/1826E; 20 h): 0.25 µg/mL (≈ 0.457 µM)
- MIC (S. aureus/77; 20 h): 32 µg/mL (≈ 58.5 µM)
- MIC (S. aureus/giorigio; 20 h): 4 µg/mL (≈ 7.32 µM)
- MIC (E. coli TEM5/3739E): 8 µg/mL (≈ 14.6 µM)
- MIC (E. coli TEM9/2639E): > 128 µg/mL
- MIC (K. aerogenes/1776E; 20 h): 0.25 µg/mL (≈ 0.457 µM)
- MIC (S. aureus/6538pA; 20 h): 16 µg/mL (≈ 29.3 µM)
- MIC (A. calcoaceticus /15473A; 20 h): 2 µg/mL (≈ 3.66 µM)

SMILES: C[C@H](O/N=C(\C(=O)NC1C(=O)N2C(C(=O)[O-])=C(CSc3nc(N)c4c([n+]3N)CCC4)CSC12)c1csc(N)n1)C(=O)O (stereo partly drawn) [I-5(S), 7-[(Z)-2-(2-aminothiazol-4-yl)-2-((S)-1-carboxyeth-1-oxyimino)acetamido]-3-(1,4-diamino-1,5,6,7-tetrahydro-cyclopentapyrimidinium-2-yl)thiomethyl-3-cephem-4-carboxylate]
- MIC (E. cloacae/1194E; [1]): 8 µg/mL (≈ 12.6 µM)
- MIC (E. coli/3190Y; 20 h): ≤ 0.008 µg/mL
- MIC (S. typhimunium/14028A; [2]): 0.25 µg/mL (≈ 0.393 µM)
- MIC (E. coli/10536; 20 h): 0.016 µg/mL (≈ 0.0252 µM)
- MIC (E. coli TEM1/1193E): 0.031 µg/mL (≈ 0.0488 µM)
- MIC (P. aeruginosa/1912E; [3]): 1 µg/mL (≈ 1.57 µM)
- MIC (P. aeruginosa/6065Y; [4]): 8 µg/mL (≈ 12.6 µM)
- MIC (P. aeruginosa/10145; [5]): 2 µg/mL (≈ 3.15 µM)
- MIC (S. marcescens/1826E; [6]): 0.25 µg/mL (≈ 0.393 µM)
- MIC (S. aureus/77; [7]): 8 µg/mL (≈ 12.6 µM)
- MIC (S. aureus/giorigio; [8]): 2 µg/mL (≈ 3.15 µM)
- MIC (E. coli TEM5/3739E): 2 µg/mL (≈ 3.15 µM)
- MIC (E. coli TEM9/2639E): 8 µg/mL (≈ 12.6 µM)
- MIC (K. aerogenes/1776E; [9]): 0.13 µg/mL (≈ 0.204 µM)
- MIC (S. aureus/6538pA; 20 h): 4 µg/mL (≈ 6.29 µM)
- MIC (A. calcoaceticus /15473A; [10]): 2 µg/mL (≈ 3.15 µM)

SMILES: CO/N=C(\C(=O)NC1C(=O)N2C(C(=O)[O-])=C(CSc3nc(N)c4c([n+]3N)CCC4)CSC12)c1csc(N)n1 (stereo not shown) [Compound I-10, 7-[(Z)-2-(2-aminothiazol-4-yl)-2-(methoxyimino)acetamido]-3-(1,4-diamino-1,5,6,7-tetrahydro-cyclopentapyrimidinium-2-yl)thiomethyl-3-cephem-4-carboxylate]
- MIC (E. cloacae/1194E; [1]): 16 µg/mL (≈ 27.7 µM)
- MIC (E. coli/3190Y; [11]): 0.016 µg/mL (≈ 0.0277 µM)
- MIC (S. typhimunium/14028A; [2]): 0.25 µg/mL (≈ 0.433 µM)
- MIC (E. coli/10536; [12]): 0.016 µg/mL (≈ 0.0277 µM)
- MIC (E. coli TEM1/1193E): 0.016 µg/mL (≈ 0.0277 µM)
- MIC (P. aeruginosa/1912E; [3]): 2 µg/mL (≈ 3.46 µM)
- MIC (P. aeruginosa/6065Y; [4]): 16 µg/mL (≈ 27.7 µM)
- MIC (P. aeruginosa/10145; [5]): 4 µg/mL (≈ 6.92 µM)
- MIC (S. marcescens/1826E; [6]): 0.25 µg/mL (≈ 0.433 µM)
- MIC (S. aureus/77; [7]): 0.13 µg/mL (≈ 0.225 µM)
- MIC (E. coli TEM5/3739E): 0.25 µg/mL (≈ 0.433 µM)
- MIC (E. coli TEM9/2639E): 0.5 µg/mL (≈ 0.866 µM)
- MIC (K. aerogenes/1776E; [9]): 0.5 µg/mL (≈ 0.866 µM)
- MIC (S. aureus/6538pA; 20 h): 0.25 µg/mL (≈ 0.433 µM)
- MIC (A. calcoaceticus /15473A; [10]): 4 µg/mL (≈ 6.92 µM)

SMILES: C[n+]1c(SCC2=C(C(=O)[O-])N3C(=O)C(NC(=O)/C(=N\OC4(C(=O)O)CCCC4)c4csc(N)n4)C3SC2)nc(N)c2c1CCC2 (stereo not shown) [Compound I-12, 7-[(Z)-2-(2-aminothiazol-4-yl}-2-(1-carboxycyclopent-1-oxyimino)acetamido]-3-(4-amino-1-methyl-1,5,6,7-tetrahydro-cyclopenta-pyrimidinium-2-yl)thiomethyl-3-cephem-4-carboxylate]
- MIC (E. cloacae/1194E; [1]): 8 µg/mL (≈ 11.9 µM)
- MIC (E. coli/3190Y; [11]): 0.063 µg/mL (≈ 0.0934 µM)
- MIC (S. typhimunium/14028A; [2]): 0.25 µg/mL (≈ 0.37 µM)
- MIC (E. coli/10536; [12]): 0.016 µg/mL (≈ 0.0237 µM)
- MIC (E. coli TEM1/1193E): 0.13 µg/mL (≈ 0.193 µM)
- MIC (P. aeruginosa/1912E; [3]): 1 µg/mL (≈ 1.48 µM)
- MIC (P. aeruginosa/6065Y; [4]): 16 µg/mL (≈ 23.7 µM)
- MIC (P. aeruginosa/10145; [5]): 2 µg/mL (≈ 2.96 µM)
- MIC (S. marcescens/1826E; [6]): 0.25 µg/mL (≈ 0.37 µM)
- MIC (S. aureus/77; [7]): 8 µg/mL (≈ 11.9 µM)
- MIC (S. aureus/giorigio; [8]): 2 µg/mL (≈ 2.96 µM)
- MIC (E. coli TEM5/3739E): 0.5 µg/mL (≈ 0.741 µM)
- MIC (E. coli TEM9/2639E): 4 µg/mL (≈ 5.93 µM)
- MIC (K. aerogenes/1776E; [9]): 0.13 µg/mL (≈ 0.193 µM)
- MIC (S. aureus/6538pA; [13]): 2 µg/mL (≈ 2.96 µM)
- MIC (A. calcoaceticus /15473A; [10]): 2 µg/mL (≈ 2.96 µM)

SMILES: C[n+]1c(SCC2=C(C(=O)[O-])N3C(=O)C(NC(=O)/C(=N\OC(C)(C)C(=O)O)c4csc(N)n4)C3SC2)nc(N)c2c1CCC2 (stereo not shown) [Compound I-2, 7-[(Z)-2-(2-aminothiazol-4-yl)-2-(2-carboxyprop-2-oxyimino)acetamido]-3-(4-amino-1-methyl-1,5,6,7-tetrahydro-cyclopentapyrimidinium-2-yl)thiomethyl-3-cephem-4-carboxylate]
- MIC (E. cloacae/1194E; [1]): 4 µg/mL (≈ 6.17 µM)
- MIC (E. coli/3190Y; [11]): 0.063 µg/mL (≈ 0.0971 µM)
- MIC (S. typhimunium/14028A; [2]): 0.25 µg/mL (≈ 0.385 µM)
- MIC (E. coli/10536; [12]): 0.13 µg/mL (≈ 0.2 µM)
- MIC (E. coli TEM1/1193E): 0.13 µg/mL (≈ 0.2 µM)
- MIC (P. aeruginosa/1912E; [3]): 0.5 µg/mL (≈ 0.771 µM)
- MIC (P. aeruginosa/6065Y; [4]): 4 µg/mL (≈ 6.17 µM)
- MIC (P. aeruginosa/10145; [5]): 1 µg/mL (≈ 1.54 µM)
- MIC (S. marcescens/1826E; [6]): 0.5 µg/mL (≈ 0.771 µM)
- MIC (S. aureus/77; 20 h): 8 µg/mL (≈ 12.3 µM)
- MIC (S. aureus/giorigio; [8]): 1 µg/mL (≈ 1.54 µM)
- MIC (E. coli TEM5/3739E): 0.5 µg/mL (≈ 0.771 µM)
- MIC (E. coli TEM9/2639E): 2 µg/mL (≈ 3.08 µM)
- MIC (K. aerogenes/1776E; [9]): 0.13 µg/mL (≈ 0.2 µM)
- MIC (S. aureus/6538pA; [13]): 2 µg/mL (≈ 3.08 µM)
- MIC (A. calcoaceticus /15473A; [10]): 1 µg/mL (≈ 1.54 µM)
